Measured values reported in patent US20070258912A1, “Use of Fluorescent Whitening Agents as Antimicrobials” (priority 2004, published 2007).

Assays:
Assay type in all cases: cell-based
Corynebacterium xerosis [1] = experiment: MIC in the agar incorporation test; conditions: ATCC373, agar incorporation, Mueller Hinton agar, 24 hours at 37° C., ATCC 373, read-out: MIC Corynebacterium xerosis
Procedure: (§1) Determination of Minimum Inhibitory Concentration (MIC Values) in the Agar Incorporation Test
(§2) 1% stock solutions of the substances are prepared in an appropriate solvent and diluted in serial dilutions 1:2 (to yield end concentrations in the agar of 500-1.9 ppm). 0.3 ml of each dilution step is mixed with 15 ml of nutrient medium while the latter is still liquid. After the nutrient medium has solidified, 10 μl of each test strain in 0.85% NaCl solution are spotted onto the agar medium.
(§3) The plates are incubated at 37° C. for 24 hours and then the highest dilution (lowest concentration) of the test substance at which growth is no longer observable is determined.
(§4) Test Organisms: Staphylococcus aureus ATCC 6583 Staphylococcus epidermidis ATCC 12228 Corynebacterium xerosis ATCC 373 Propionibacterium acnes ATCC Escherichia coli ATCC 10536 Salmonella choleraesuis ATCC Klebsiella pneumoniae ATCC *Candida albicans ATCC 10231
(§5) *Aspergillus niger ATCC 6275

Escherichia coli [2] = experiment: MIC in the agar incorporation test; conditions: ATCC10536, agar incorporation, Mueller Hinton agar, 24 hours at 37° C., ATCC 10536, read-out: MIC Escherichia coli
Procedure: as §1, §2, §3, §4, §5

Klebsiella pneumoniae = experiment: MIC in the agar incorporation test; conditions: Mueller Hinton agar, 24 hours at 37° C.
Procedure: as §1, §2, §3, §4, §5

Propionibacterium acnes = experiment: MIC in the agar incorporation test; conditions: Cutibacterium acnes; agar incorporation, Mueller Hinton agar, 24 hours at 37° C.; read-out: MIC Propionibacterium acnes
Procedure: as §1, §2, §3, §4, §5

Salmonella choleraesuis = experiment: MIC in the agar incorporation test; conditions: Salmonella enterica, Mueller Hinton agar, 24 hours at 37° C.
Procedure: as §1, §2, §3, §4, §5

Staphylococcus aureus [3] = experiment: MIC in the agar incorporation test; conditions: ATCC6583, agar incorporation, Mueller Hinton agar, 24 hours at 37° C., ATCC 6583, read-out: MIC Staphylococcus aureus
Procedure: as §1, §2, §3, §4, §5

Staphylococcus epidermis = experiment: MIC in the agar incorporation test; conditions: ATCC12228, agar incorporation, Mueller Hinton agar, 24 hours at 37° C., ATCC 12228, read-out: MIC Staphylococcus epidermis
Procedure: as §1, §2, §3, §4, §5

[4] = tested on: Corynebacterium minutissimum; experiment: MIC in the agar incorporation test; conditions: agar incorporation, Mueller Hinton agar, 24 hours at 37° C., read-out: MIC Corynebacterium minutissimum
Actinomyces viscosus [5] = experiment: MIC against oral microorganisms via broth dilution; conditions: ATCC43146, broth dilution 0.94-15 ppm, 7-10 days at 37° C. anaerobically, ATCC 43146, read-out: MIC Actinomyces viscosus
Procedure: (§6) Determination of the Minimum Inhibition Concentration (MIC Value) Against Different Oral Microorganisms Via Broth Dilution
(§7) 1500 ppm stock solutions of the substances are prepared in ethanol and pipetted into the growth medium to yield concentrations between 0.94 and 15 ppm. Bacteria are taken from blood agar plates with cotton swabs and adjusted in the appropriate growth medium to yield an optical density corresponding to McFarland 0.5. This suspension is directly used in the case of F. nucleatum and P. nigrescens. For the other strains, the suspension is diluted 1:20. 0.1 ml of these bacterial suspensions are added to 2 ml of the substance solutions. After the incubation time, the tubes are assessed for growth (turbidity).
(§8) Test Organisms: *Actinobacillus actinomycetemcomitans ATCC 43718 *Stretococcus gordonii ATCC 10558 *Streptococcus mutans ATCC 33402 Actinomyces viscosus ATCC 43146 Fusobacterium nucleatum subsp. polymorphum ATCC 10953 Porphyromonas gingivalis ATCC 33277
(§9) Prevotella nigrescens ATCC 33563

[6] = tested on: Fusobacterium nucleatum subsp. polymorphum; experiment: MIC against oral microorganisms via broth dilution; conditions: ATCC10953, broth dilution 0.94-15 ppm, 7-10 days at 37° C. anaerobically, ATCC 10953, read-out: MIC Fusobacterium nucleatum subsp. polymorphum
Procedure: as §6, §7, §8, §9

Porphyromnas gingivalis = experiment: MIC against oral microorganisms via broth dilution; conditions: broth dilution 0.94-15 ppm, Columbia bouillon, 7-10 days at 37° C. anaerobically, ATCC 33277; read-out: MIC Porphyromnas gingivalis
Procedure: as §6, §7, §8, §9

Prevotella nigrescens = experiment: MIC against oral microorganisms via broth dilution; conditions: ATCC33563, broth dilution 0.94-15 ppm, Columbia bouillon, 7-10 days at 37° C. anaerobically, ATCC 33563, read-out: MIC Prevotella nigrescens
Procedure: as §6, §7, §8, §9

Streptococcus gordonii = experiment: MIC against oral microorganisms via broth dilution; conditions: ATCC10558, broth dilution 0.94-15 ppm, 24 h aerobically with 10% CO2, ATCC 10558, read-out: MIC Streptococcus gordonii
Procedure: as §6, §7, §8, §9

Streptococcus mutans = experiment: MIC against oral microorganisms via broth dilution; conditions: ATCC33402, broth dilution 0.94-15 ppm, 24 h aerobically with 10% CO2, ATCC 33402, read-out: MIC Streptococcus mutans
Procedure: as §6, §7, §8, §9

Actinomyces viscosus [7] = experiment: Microbicidal activity (suspension test, plate count); conditions: ATCC 43146
Procedure: (§10) Determination of Microbicidal Activity
(§11) 1 g stock solution with an appropriate concentration of test products are mixed with 8 g water and then inoculated with 1 ml of the selected test organisms. After a given contact period, aliquots are taken, inactivated and diluted. The number of surviving bacteria per ml incubation assay is determined by plate count. Proper inactivation by the inactivating medium used was checked each time.
(§12) Diluent: tryptone water for microorganisms
(§13) • (0.1% tryptone (Oxoid), 0.85% NaCl, deion. water) • deion. water for test substances • inactivating medium for detection of surviving microorganisms Growth medium: casein soybean peptone agar Inactivating Medium: tryptic soy broth special • (10% w/w Tween 80, 3% w/w Lecithine, 0.1% w/w L-Histidine, • 0.055% w/w Sodium thiosulfate) Test organisms: Staphylococcus aureus ATCC 6538 • Escherichia coli ATCC 10536 • Actinomyces viscosus ATCC 43146 • Corynebacterium xerosis ATCC 373 Test concentration: 120 ppm and 1200 ppm Contact times: 5 and 30 minutes at 22° C.
(§14) Incubation time: 24 h at 37° C.

Corynebacterium xerosis [8] = experiment: as above; conditions: ATCC 373
Procedure: as §10, §11, §12, §13, §14

Escherichia coli [9] = experiment: as above; conditions: ATCC 10536
Procedure: as §10, §11, §12, §13, §14

Staphylococcus aureus [10] = experiment: as above; conditions: ATCC 6538
Procedure: as §10, §11, §12, §13, §14

[11] = 1200 ppm, 5 min contact at 22° C.
[12] = 1200 ppm, 30 min contact at 22° C.

Row | MIC (Corynebacterium xerosis [1]) [µg/mL] | MIC (Escherichia coli [2]) [µg/mL] | MIC (Klebsiella pneumoniae) [µg/mL] | MIC (Propionibacterium acnes) [µg/mL] | MIC (Staphylococcus aureus [3]) [µg/mL] | MIC (Staphylococcus epidermis) [µg/mL] | MIC [4] [µg/mL] | MIC (Actinomyces viscosus [5]) [µg/mL] | MIC [6] [µg/mL] | MIC (Porphyromnas gingivalis) [µg/mL] | MIC (Prevotella nigrescens) [µg/mL] | MIC (Streptococcus gordonii) [µg/mL] | MIC (Streptococcus mutans) [µg/mL] | Compound | MIC (Salmonella choleraesuis) [µg/mL] | Microbicidal activity Actinomyces viscosus 120 ppm/5 min (Actinomyces viscosus [7]; 5 min contact at 22° C.) [log reductions] | Microbicidal activity Actinomyces viscosus 120 ppm/30 min (Actinomyces viscosus [7]; 30 min contact at 22° C.) [log reductions] | Microbicidal activity Corynebacterium xerosis 120 ppm/5 min (Corynebacterium xerosis [8]; 5 min contact at 22° C.) [log reductions] | Microbicidal activity Corynebacterium xerosis 120 ppm/30 min (Corynebacterium xerosis [8]; 30 min contact at 22° C.) [log reductions] | Microbicidal activity Escherichia coli 120 ppm/5 min (Escherichia coli [9]; 5 min contact at 22° C.) [log reduction] | Microbicidal activity Escherichia coli 120 ppm/30 min (Escherichia coli [9]; 30 min contact at 22° C.) [log reduction] | also measured
1 | 7.8 | 125 | 31.3 | 3.9 | 7.8 | 15.6 | 3.9 | 3.75 | 7.5 | 3.75 | 7.5 | 7.5 | 7.5 | CN(C)CCSc1ccccc1/C=C/c1ccc(/C=C/c2ccccc2SCCN(C)C)cc1 [formula 23] | 125 | 2 | 4 | 5 | 5 | 3.3 | 5 | Microbicidal activity Staphylococcus aureus 120 ppm/5 min (Staphylococcus aureus [10]; 5 min contact at 22° C.): 2 log reduction; Microbicidal activity Staphylococcus aureus 120 ppm/30 min (Staphylococcus aureus [10]; 30 min contact at 22° C.): 4 log reduction
2 | 15.6 | 125 | – | 62.5 | 62.5 | 62.5 | 15.6 | 15 | – | – | 15 | – | – | CCN(CC)CCOc1cccc(/C=C/c2ccc(/C=C/c3cccc(OCCN(CC)CC)c3OCCN(CC)CC)cc2)c1OCCN(CC)CC [formula 25] | 125 | 2.9 | 2.1 | 5 | 5 | 5 | 5 | Microbicidal activity Actinomyces viscosus 1200 ppm/5 min (Actinomyces viscosus [7]; [11]): 4 log reductions; Microbicidal activity Actinomyces viscosus 1200 ppm/30 min (Actinomyces viscosus [7]; [12]): 4 log reductions; Microbicidal activity Corynebacterium xerosis 1200 ppm/5 min (Corynebacterium xerosis [8]; [11]): 5 log reductions; Microbicidal activity Corynebacterium xerosis 1200 ppm/30 min (Corynebacterium xerosis [8]; [12]): 5 log reductions; Microbicidal activity Escherichia coli 1200 ppm/5 min (Escherichia coli [9]; [11]): 5 log reduction; Microbicidal activity Escherichia coli 1200 ppm/30 min (Escherichia coli [9]; [12]): 5 log reduction; Microbicidal activity Staphylococcus aureus 120 ppm/5 min (Staphylococcus aureus [10]; 5 min contact at 22° C.): 1 log reduction; Microbicidal activity Staphylococcus aureus 120 ppm/30 min (Staphylococcus aureus [10]; 30 min contact at 22° C.): 1 log reduction; Microbicidal activity Staphylococcus aureus 1200 ppm/5 min (Staphylococcus aureus [10]; [11]): 2.9 log reduction; Microbicidal activity Staphylococcus aureus 1200 ppm/30 min (Staphylococcus aureus [10]; [12]): 2.8 log reduction
3 | 3.1 | – | 25 | 6.3 | 12.5 | 12.5 | 3.1 | 7.5 | 7.5 | 7.5 | 3.8 | 15 | 15 | COc1cccc(/C=C/c2ccc(/C=C/c3cccc(OC)c3OCCCN(C)C)cc2)c1OCCCN(C)C [formula 27] | 200 | – | – | – | – | – | – | –
